System: Plasmopara viticola
Assay: activity against peronospora of grapevines caused by Plasmopara viticola (protective spray on potted vines, cultivar Riesling)
Format: in vivo
Conditions: individual active compound, untreated control 90% infection
Description: The active compounds, separately or jointly, were prepared as a stock solution comprising 0.25% by weight of active compound in acetone or DMSO. 1 % by weight of the emulsifier Uniperol® EL (wetting agent having emulsifying and dispersant action based on ethoxylated alkylphenols) was added to this solution, and the mixture was diluted with water to the desired concentration.
Use example—activity against peronospora of gravevines caused by Plasmopara viticola
Leaves of potted vines of the cultivar “Riesling” were sprayed to runoff point with an aqueous suspension having the concentration of active compound stated below. The next day, the undersides of the leaves were inoculated with an aqueous zoospore suspension of Plasmopara viticola. The grapevines were then initially placed in a water-vapor-saturated chamber at 24° C. for 48 hours and then in a greenhouse at 20-30° C. for 5 days. After this period of time, the plants were again placed in a humid chamber for 16 hours to promote sporangiophore eruption. The extent of the development of the disease on the undersides of the leaves was then determined visually.
The visually determined percentages of infected leaf areas were converted into efficacies as % of the untreated control:
The efficacy (E) is calculated as follows using Abbot's formula: E=(1−α/β)·100 • α corresponds to the fungicidal infection of the treated plants in % and • β corresponds to the fungicidal infection of the untreated (control) plants in %
An efficacy of 0 means that the infection level of the treated plants corresponds to that of the untreated control plants; an efficacy of 100 means that the treated plants were not infected.
The expected efficacies of combinations of active compounds were determined using Colby's formula (Colby, S.R. “Calculating synergistic and antagonistic responses of herbicide combinations”, Weeds, 15, 20-22, 1967) and compared with the observed efficacies. Colby's formula: E=x+y−x·y/100 • E expected efficacy, expressed in % of the untreated control, when using the mixture of the active compounds A and B at the concentrations a and b • x efficacy, expressed in % of the untreated control, when using the active compound A at the concentration a • y efficacy, expressed in % of the untreated control, when using the active compound B at the concentration b

Structure (SMILES): CC1CCN(c2c(-c3c(F)cccc3Cl)c(Cl)nc3ncnn23)CC1 [A]
- Efficacy in % of the untreated control (4 ppm in the spray liquor): 11%

Structure (SMILES): C[C@H](Nc1c(-c2c(F)cc(F)cc2F)c(Cl)nc2ncnn12)C(F)(F)F [B]
- Efficacy in % of the untreated control (4 ppm in the spray liquor): 11%

Structure (SMILES): CC1CCN(c2c(-c3c(F)cc(F)cc3F)c(Cl)nc3ncnn23)CC1 [I, 5-chloro-7-(4-methylpiperidin-1-yl)-6-(2,4,6-trifluorophenyl)-[1,2,4]triazolo[1,5-a]pyrimidine]
- Efficacy in % of the untreated control (4 ppm in the spray liquor): 56%

Structure (SMILES): CC(C1CC1)C(O)(Cn1cncn1)c1ccc(Cl)cc1 (stereo not drawn) [II, 2-(4-chlorophenyl)-3-cyclopropyl-1-[1,2,4]triazol-1-ylbutan-2-ol]
- Efficacy in % of the untreated control (1 ppm in the spray liquor): 0%
- Efficacy in % of the untreated control (4 ppm in the spray liquor): 0%
- Efficacy in % of the untreated control (16 ppm in the spray liquor): 0%
